We go through 18 compounds from article PMC8165550, “Molecular basis for diaryldiamine selectivity and competition with tRNA in a type 2 methionyl-tRNA synthetase from a Gram-negative bacterium” (The Journal of Biological Chemistry, 2021).

Usually kcat stands for the maximal rate divided by the concentration of active sites. By EC50 is commonly meant the midpoint of the concentration-response curve. By IC50 is commonly meant the midpoint of a concentration-inhibition curve. For orientation: Kd means the concentration at which binding is half-saturated.

Values after ≈ are worked out from the molar mass of the structure shown. Values joined by “and” are separate entries in the source; they are usually repeats but may differ in a detail not shown here. Identical values can stand only once. Like-named read-outs stand apart in the source and are kept apart here. Bounds are passed on as bounds.

Assay [1] addresses T1, XcMetRS (WT) (Xanthomonas citri pv. citri, UniProt Q8PMP0). The class given is binding. More on the design: His tag with TEV site (from pET28-TEV vector) (N); made in house; host or cells: E. coli BL21(DE3). The protocol:
All wells contained 2% DMSO used to prepare stock solutions of REP3123 and REP8839. Protein unfolding was monitored on a 7500 Real-Time PCR System (Applied Biosystems) cycler by measuring fluorescence (λEmission = 580 nm) during 71 cycles starting at 25 °C, with a one-degree Celsius increment at each cycle. Experimental data points were normalized and adjusted to the equation y = ymin + ((ymax − ymin)/(1 + e^(Tm − T)/S)), where ymax and ymin are normalized fluorescence values, Tm is the melting temperature, T is the temperature, and S is the slope.

Assay [2] has as its target T1, XcMetRS (WT). The experiment in a line: XcMetRS enzyme kinetic assay (coupled fluorometric AMP/resorufin assay). The class given is biochemical. Set-up: His tag with TEV site (from pET28-TEV vector) (N); made in house; host or cells: E. coli BL21(DE3). From the text: Similarly, vmax^app, K’, and Hill slope (h) were obtained for ATP using the equation v = (vmax^app x [S]^h)/(K’ + [S]^h). The catalytic rate constant (kcat) was estimated by the equation kcat = vmax^app/Et, where Et is the enzyme concentration in the assay.

The subject of a further assay is X. citri strain 306. The experiment in a line: Antibiogram, agar disc-diffusion assay. The note with it: X. citri strain 306, LBON-agar, 24 h at 28 °C. Background: Agar diffusion results depend on both activity and mobility in agar.
A further assay has as its system X. citri 306. Put plainly: X. citri growth inhibition, broth microdilution with resazurin. To be noted: for MIC (minimum inhibitory concentration): X. citri 306, LBON, 28 °C, 24 h, at least 90% growth inhibition; for EC50 / MIC: Xanthomonas citri, 306, 24 h; for EC50: read-out: EC50 (growth inhibition); for MIC: read-out: MIC (minimum inhibitory concentration). A general note: Broth dilution looks for growth in wells or tubes with falling amounts of substance.

Assay [3] deals with coupled enzyme system (ScAMD, CjIMPDH, diaphorase). Put plainly: Control: inhibition of the coupled enzyme system used to detect AMP production. The note with it: read-out: IC50 on coupled enzyme system, without XcMetRS step.
Experimental: Inhibition studies using the XcMetRS-ScAMD-CjIMPDH-diaphorase–coupled assay (Fig. S2) were performed at various concentrations (half-log serial dilutions starting at 100 μM) of the inhibitors in anhydrous dimethyl sulfoxide (DMSO). Assays were performed at 25 °C in black 384-well microplates in 25-μl final volume in 0.1 M Tris HCl, pH 7.5, 0.15 M KCl, 10 mM MgCl2, and 0.01% Triton X-100.
Values correspond to measurements of four independent experiments and error bars denote standard deviations.
For assay [4], the target named is T1, XcMetRS (WT).
Experimental: Inhibition studies using the XcMetRS-ScAMD-CjIMPDH-diaphorase–coupled assay (Fig. S2) were performed at various concentrations (half-log serial dilutions starting at 100 μM) of the inhibitors in anhydrous dimethyl sulfoxide (DMSO). Assays were performed at 25 °C in black 384-well microplates in 25-μl final volume in 0.1 M Tris HCl, pH 7.5, 0.15 M KCl, 10 mM MgCl2, and 0.01% Triton X-100. […] Plots were prepared in GraphPad Prism.
For a further assay, the target named is T2, XcMetRS (Xanthomonas citri pv. citri, UniProt Q8PMP0).
T2 construct: His tag with TEV site (from pET28-TEV vector) (N); made in house; host or cells: E. coli BL21(DE3)
T2 sequence (Q8PMP0 whole entry): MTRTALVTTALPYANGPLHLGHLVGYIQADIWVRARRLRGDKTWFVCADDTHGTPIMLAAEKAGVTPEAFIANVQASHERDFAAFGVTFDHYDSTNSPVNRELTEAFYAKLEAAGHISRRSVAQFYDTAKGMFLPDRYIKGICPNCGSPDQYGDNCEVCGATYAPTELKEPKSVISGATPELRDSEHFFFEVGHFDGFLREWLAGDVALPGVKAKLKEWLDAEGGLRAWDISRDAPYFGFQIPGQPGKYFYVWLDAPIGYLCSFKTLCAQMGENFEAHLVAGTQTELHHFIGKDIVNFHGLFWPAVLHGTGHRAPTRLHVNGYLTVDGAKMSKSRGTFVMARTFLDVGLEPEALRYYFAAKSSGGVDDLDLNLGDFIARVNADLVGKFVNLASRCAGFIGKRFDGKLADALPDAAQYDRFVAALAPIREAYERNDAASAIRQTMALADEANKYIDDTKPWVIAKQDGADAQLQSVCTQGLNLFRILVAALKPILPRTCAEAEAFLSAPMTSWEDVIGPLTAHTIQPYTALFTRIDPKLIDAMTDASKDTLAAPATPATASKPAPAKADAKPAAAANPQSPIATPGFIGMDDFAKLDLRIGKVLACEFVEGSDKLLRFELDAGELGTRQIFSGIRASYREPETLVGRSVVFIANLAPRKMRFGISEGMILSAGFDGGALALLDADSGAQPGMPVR
The experiment in a line: Isothermal titration calorimetry (ITC). The class given is binding. The note with it: for Kd: 20 °C. The protocol: ITC measurements were performed on a MicroCal VP-ITC calorimeter equipped with a VPViewer2000 software for data acquisition at the Spectroscopy and Calorimetry Lab facility (LEC) from the Brazilian Bioscience National Laboratory/Brazilian Centre for Research in Energy and Materials (LNBio/CNPEM). Purified XcMetRS (10 μM) was titrated against the ligands in 0.1 M Hepes, pH 7.5, containing 0.3 M NaCl, 10 mM MgCl2, 5% glycerol in the absence or presence of AMP or ATP at a 5 mM final concentration. To avoid nucleotide dilution, AMP/ATP was added to both ligand and receptor solutions. The ligands were added to the protein solutions kept in a 2-ml experimental cell using a titration syringe. The reactions were performed at 20 °C under agitation (200 rpm), starting with a first injection of 2 μl of ligand solution (200 μM) during 4 s, followed by 27 injections of 10 μl with 200-s intervals between injections. Titration results were corrected for ligand dilution, and all the data were analyzed using Origin7.0 software.

T1 sequence (Q8PMP0 whole entry): as above
Experimental for X. citri 306: (§1) X. citri 306 was cultivated on LBON medium (10 g/l tryptone; 5 g/l yeast extract; pH 7.0) at 28 °C. The susceptibility to distinct antibiotics was evaluated using the disc-diffusion method. Briefly, a bacterial suspension was prepared in sterile saline solution (0.85% NaCl) to an optical density of 0.1 (approximately 1.5 × 10^8 CFU/ml) and used to inoculate the surface of an LBON-agar plate (1.7% agar; 150 × 15 mm Petri dish; 55 ml/dish). Antibiotic discs were applied 15 min after inoculum, and after incubation for 24 h at 28 °C, images were recorded with a camera. The minimum inhibitory concentration was obtained through broth microdilution method. These assays were performed with eight replicates for each compound concentration. Serial 2-fold dilutions of compounds were prepared in DMSO and 1 μl transferred to sterile 96-well assay plates containing 49 μl of the culture media (LBON). Then, 50 μl of a bacterial suspension (1 × 10^6 CFU/ml) was added to each well. Plates were incubated at 28 °C for 24 h before addition of 10 μl of resazurin 0.02%. After a new incubation (up to 4 h), the fluorescence (λExc/Em = 570–615 nm) was measured using a plate reader (CLARIOstar, BMG LabTech). Blanks were prepared with culture media. Positive and negative controls were prepared with DMSO and tetracycline (10 μg/ml).
Experimental for X. citri strain 306: as §1

Turning to `Nc1ncnc2c1ncn2[C@@H]1O[C@H](COP(=O)(O)OP(=O)(O)OP(=O)(O)O)[C@@H](O)[C@H]1O` [ATP], the Tm on XcMetRS (WT) [1] (ligand 5 mM) is given as 51.3 ^oC; at XcMetRS (WT) [1] (ligand 5 mM, listed as ATP:Mg), 51,3 ± 0,3 ^oC. The Tm shift at XcMetRS (WT) [1] (ligand alone) came to 3.0 °C. Moreover, the kcat at XcMetRS (WT) [2] (ATP as varied substrate) stood at 0.33 ± 0.005 s⁻¹. The “h (Hill slope)” value at XcMetRS (WT) [2] (ATP varied) turned out to be 3.3. On XcMetRS (WT) [2] (ATP varied, L-Met 200 μM), the “K’” value was 0.95 ± 0.08 mM.
`C[C@H]1[C@H](NC(=O)/C(=N\OC(C)(C)C(=O)O)c2csc(N)n2)C(=O)N1S(=O)(=O)O` [Aztreonam]: the “susceptibility phenotype of X. citri in antibiogram” value (shortened to “susceptibility phenotype”) in the assay with X. citri strain 306 is “resistant”.
Turning to `CSCC[C@H](N)C(=O)O` [L-Met, L-methionine], the Tm at XcMetRS (WT) [1] (ligand 5 mM) is on record as 55,9 ± 0,2 ^oC. The kcat on XcMetRS (WT) [2] (L-Met as varied substrate) worked out at 0.2062 ± 0.00467 s⁻¹.
As to `O=c1cc(NCCCN[C@@H]2CCOc3c(Br)cc(Br)cc32)[nH]c2ccsc12` [REP3123], the Tm on XcMetRS (WT) [1] (ligand 25 µM) is 47,9 ± 0,1 ^oC. In addition, at XcMetRS (WT) [1] (ligand + ATP:Mg), the Tm is reported as 50,7 ± 0,1 ^oC. In the assay with X. citri 306, the “MIC (minimum inhibitory concentration)” value is over 128 µg/mL, the 50% effective concentration (EC50) was 60.5 ± 1 µg/mL (≈ 118 µM) and the MIC was over 128 µg/mL. The IC50 in assay [3] amounted to 26400 nM.
For `C=C(F)c1sc(CNCCCNc2cc(O)c3ccccc3n2)c(C)c1Br` [REP8839], the IC50 against XcMetRS (WT) [4] was determined as 20800 ± 6500 nM. Also, the dissociation constant Kd on XcMetRS (in the presence of AMP (5 mM)) was 630 nM and 600 nM; at XcMetRS (in the presence of ATP (5 mM)), 1370 nM and 1400 nM. At XcMetRS (in the absence of nucleotides), the KD entry is listed as “no KD for REP8839 could be measured”. The Tm is 50,6 ± 0,1 ^oC at XcMetRS (WT) [1] (ligand 25 µM) and 52,8 ± 0,1 ^oC on XcMetRS (WT) [1] (ligand + ATP:Mg). For the same compound, in the assay with X. citri 306, the “MIC (minimum inhibitory concentration)” value is 64 µg/mL (≈ 142 µM). In the assay on X. citri 306, the EC50 came to 25.5 ± 1 µg/mL (≈ 56.6 µM). For the same compound, in the assay on X. citri 306, the MIC stood at 64 µg/mL (≈ 142 µM).
For the compound `CC1(C)S[C@@H]2[C@H](NC(=O)[C@H](N)c3ccc(O)cc3)C(=O)N2[C@H]1C(=O)O` [amoxicillin], the “susceptibility phenotype” value in the assay on X. citri strain 306 was “resistant”.
As for `CC1(C)S[C@@H]2[C@H](NC(=O)[C@H](N)c3ccccc3)C(=O)N2[C@H]1C(=O)O` [ampicillin], the “susceptibility phenotype” value with X. citri strain 306 is “resistant”.
In the case of `N[C@@H](C(=O)N[C@@H]1C(=O)N2C(C(=O)O)=C(Cl)CS[C@H]12)c1ccccc1` [cefaclor], the “susceptibility phenotype” value in the assay with X. citri strain 306 is listed as “resistant”.
The same measure, in the same setting: the same measure for `CO/N=C(\C(=O)N[C@@H]1C(=O)N2C(C(=O)[O-])=C(C[N+]3(C)CCCC3)CS[C@H]12)c1csc(N)n1` [cefepime]: “resistant”; for `CO/N=C(\C(=O)N[C@@H]1C(=O)N2C(C(=O)O)=C(COC(C)=O)CS[C@H]12)c1csc(N)n1` [cefotaxime]: “resistant”.
Still for that read-out and setting: the same measure for `CO[C@@]1(NC(=O)Cc2cccs2)C(=O)N2C(C(=O)O)=C(COC(N)=O)CS[C@@H]21` [cefoxitin]: “resistant”; for `CC(C)(O/N=C(\C(=O)N[C@@H]1C(=O)N2C(C(=O)[O-])=C(C[n+]3ccccc3)CS[C@H]12)c1csc(N)n1)C(=O)O` [ceftazidime]: “resistant”.
As for `CO/N=C(\C(=O)N[C@@H]1C(=O)N2C(C(=O)O)=C(CSc3nc(=O)c(=O)[nH]n3C)CS[C@H]12)c1csc(N)n1` [ceftriaxone], the “susceptibility phenotype” value with X. citri strain 306 is “resistant”.
`CC(=O)OCC1=C(C(=O)O)N2C(=O)[C@@H](NC(=O)Cc3cccs3)[C@H]2SC1` [cephalothin]: in the assay on X. citri strain 306, the “susceptibility phenotype” value is on record as “resistant”.
On the same count and under the same terms, the same measure for `C[C@@H](O)[C@H]1C(=O)N2C(C(=O)O)=C(SCCN=CN)C[C@H]12` [imipenem]: “resistant”; for `O=C1CN(/N=C/c2ccc([N+](=O)[O-])o2)C(=O)N1` [nitrofurantoin]: “resistant”.
Same read-out and setting: the same measure for `NC[C@H]1O[C@H](O[C@H]2[C@H](O)[C@@H](O[C@H]3O[C@H](CO)[C@@H](O)[C@H](N)[C@H]3O)[C@H](N)C[C@@H]2N)[C@H](N)C[C@@H]1O` [tobramycin]: “close to breakpoint values considered for a resistant phenotype”; for neomycin: “close to breakpoint values considered for a resistant phenotype”.
